Laboratory results reported in ChEMBL document CHEMBL4680227, “Design and synthesis of selective degraders of EGFR mutant” (Eur J Med Chem, 2020).
pIC50: −log10 of the molar value. Active and inactive are the calls of the source. The calls are words filed in the database; no cut-off is given here.

What was measured:
[1] = target: T1, von Hippel-Lindau disease tumor suppressor/Epidermal growth factor receptor (Homo sapiens, UniProt P00533+P40337); test: Protac activity at VHL/EGFR in human A431 cells assessed as EGFR degradation by Western blot analysis; assay type: cell-based; settings: a-431
[2] = target: von Hippel-Lindau disease tumor suppressor/Epidermal growth factor receptor (Homo sapiens, UniProt P00533+P40337, T790M/L858R); test: Protac activity at VHL/EGFR L858R/T790M mutant in human NCI-H1975 cells assessed as EGFR degradation by Western blot analysis; assay type: cell-based
[3] = target: E3 ubiquitin-protein ligase Mdm2/Epidermal growth factor receptor (Homo sapiens, UniProt Q00987+P00533, T790M/L858M); test: Protac activity at MDM2/EGFR L858R/T790M mutant in human NCI-H1975 cells assessed as EGFR degradation by Western blot analysis; assay type: cell-based
[4] = target: E3 ubiquitin-protein ligase Mdm2/Epidermal growth factor receptor (Homo sapiens, UniProt Q00987+P00533); test: Protac activity at MDM2/EGFR in human A431 cells assessed as EGFR degradation by Western blot analysis; assay type: cell-based; settings: a-431
[5] = test system: von Hippel-Lindau disease tumor suppressor/Epidermal growth factor receptor (Homo sapiens), P00533+P40337 [L858R,T790M]; test: Protac activity at VHL/EGFR L858R/T790M mutant in human NCI-H1975 cells assessed as induction of EGFR degradation at 100 nM in presence of EGFR L858R/T790M mutant ligand osimertinib by Western blot analysis; assay type: cell-based
[6] = target: T1, von Hippel-Lindau disease tumor suppressor/Epidermal growth factor receptor; test: Protac activity at VHL/EGFR in human A431 cells assessed as reduction in AKT phosphorylation up to 10000 nM measured after 16 hrs by Western blot analysis; assay type: cell-based; settings: A-431, dose nM <=10000, time 16.0 hrs
[7] = test system: von Hippel-Lindau disease tumor suppressor/Epidermal growth factor receptor (Homo sapiens), P00533+P40337 [L858R,T790M]; test: Protac activity at VHL/EGFR L858R/T790M mutant in human NCI-H1975 cells assessed as reduction in ERK phosphorylation measured after 16 hrs by Western blot analysis; assay type: cell-based
[8] = test system: NCI-H1975; test: Antiproliferative activity against human NCI-H1975 cells measured after 72 hrs by CCK8 assay; assay type: functional, cell-based; settings: NCI-H1975, 72 h
[9] = target: T1, von Hippel-Lindau disease tumor suppressor/Epidermal growth factor receptor; test: Protac activity at VHL/EGFR in human A431 cells assessed as EGFR degradation up to 10000 nM measured after 16 hrs by Western blot analysis; assay type: cell-based; settings: A-431, dose nM <=10000, time 16.0 hrs
[10] = test system: von Hippel-Lindau disease tumor suppressor/Epidermal growth factor receptor (Homo sapiens), P00533+P40337 [L858R,T790M]; test: Protac activity at VHL/EGFR L858R/T790M mutant in human NCI-H1975 cells assessed as reduction in AKT phosphorylation measured after 16 hrs by Western blot analysis; assay type: cell-based
[11] = Effect on ERK level in human NCI-H1975 cells up to 10000 nM treated 8 hrs post serum starvation measured after 16 hrs by Western blot analysis; assay type: ADME, cell-based; settings: nci-h1975, 16 h
[12] = test system: von Hippel-Lindau disease tumor suppressor/Epidermal growth factor receptor (Homo sapiens), P00533+P40337 [L858R,T790M]; test: Protac activity at VHL/EGFR L858R/T790M mutant in human NCI-H1975 cells assessed as reduction in EGFR autophosphorylation measured after 16 hrs by Western blot analysis; assay type: cell-based
[13] = test system: von Hippel-Lindau disease tumor suppressor/Epidermal growth factor receptor (Homo sapiens), P00533+P40337 [L858R,T790M]; test: Protac activity at VHL/EGFR L858R/T790M mutant in human NCI-H1975 cells assessed as EGFR degradation measured after 16 hrs by Western blot analysis; assay type: cell-based
[14] = test system: von Hippel-Lindau disease tumor suppressor/Epidermal growth factor receptor (Homo sapiens), P00533+P40337 [L858R,T790M]; test: Protac activity at VHL/EGFR L858R/T790M mutant in human NCI-H1975 cells assessed as induction of EGFR degradation at 100 nM in presence of VHL ligand (S,R,S)-AHPC osimertinib by Western blot analysis; assay type: cell-based
[15] = test system: von Hippel-Lindau disease tumor suppressor/Epidermal growth factor receptor (Homo sapiens), P00533+P40337 [L858R,T790M]; test: Protac activity at VHL/EGFR L858R/T790M mutant in human NCI-H1975 cells assessed as induction of EGFR degradation at 200 nM measured after 12 hrs by Western blot analysis relative to control; assay type: cell-based
[16] = test system: von Hippel-Lindau disease tumor suppressor/Epidermal growth factor receptor (Homo sapiens), P00533+P40337 [L858R,T790M]; test: Protac activity at VHL/EGFR L858R/T790M mutant in human NCI-H1975 cells assessed as reduction in ERK phosphorylation at >2000 nM measured after 16 hrs by Western blot analysis; assay type: cell-based; settings: dose nM >2000, time 16.0 hrs
[17] = test system: von Hippel-Lindau disease tumor suppressor/Epidermal growth factor receptor (Homo sapiens), P00533+P40337 [L858R,T790M]; test: Protac activity at VHL/EGFR L858R/T790M mutant in human NCI-H1975 cells assessed as reduction in AKT phosphorylation at >2000 nM measured after 16 hrs by Western blot analysis; assay type: cell-based; settings: dose nM >2000, time 16.0 hrs
[18] = target: Epidermal growth factor receptor (Homo sapiens, UniProt P00533); test: Inhibition of wild-type EGFR (unknown origin) using Poly (Glu, Tyr) 4:1 as substrate measured after 1 hr by ELISA
[19] = target: T1, von Hippel-Lindau disease tumor suppressor/Epidermal growth factor receptor; test: Protac activity at VHL/EGFR in human A431 cells assessed as reduction in ERK phosphorylation up to 10000 nM measured after 16 hrs by Western blot analysis; assay type: cell-based; settings: A-431, dose nM <=10000, time 16.0 hrs
[20] = target: Epidermal growth factor receptor (Homo sapiens, UniProt P00533, L858R/T790M); test: Inhibition of EGFR L858R/T790M (unknown origin) using Poly (Glu, Tyr) 4:1 as substrate measured after 1 hr by ELISA
[21] = Effect on AKT level in human NCI-H1975 cells up to 10000 nM treated 8 hrs post serum starvation measured after 16 hrs by Western blot analysis; assay type: ADME, cell-based; settings: nci-h1975, 16 h
[22] = test system: von Hippel-Lindau disease tumor suppressor/Epidermal growth factor receptor (Homo sapiens), P00533+P40337 [L858R,T790M]; test: Protac activity at VHL/EGFR L858R/T790M mutant in human NCI-H1975 cells assessed as induction of EGFR degradation at 10 to 100 nM measured after 1 hr in presence of protein synthesis inhibitor cycloheximide by Western blot analysis; assay type: cell-based; settings: dose 10-100 nM
[23] = test system: von Hippel-Lindau disease tumor suppressor/Epidermal growth factor receptor (Homo sapiens), P00533+P40337 [L858R,T790M]; test: Protac activity at VHL/EGFR L858R/T790M mutant in human NCI-H1975 cells assessed as EGFR degradation at >2000 nM measured after 16 hrs by Western blot analysis; assay type: cell-based; settings: dose nM >2000, time 16.0 hrs
[24] = test system: von Hippel-Lindau disease tumor suppressor/Epidermal growth factor receptor (Homo sapiens), P00533+P40337 [L858R,T790M]; test: Protac activity at VHL/EGFR L858R/T790M mutant in human NCI-H1975 cells assessed as induction of EGFR degradation at 100 nM in presence of EGFR L858R/T790M mutant ligand XTF-262 by Western blot analysis; assay type: cell-based
[25] = test system: von Hippel-Lindau disease tumor suppressor/Epidermal growth factor receptor (Homo sapiens), P00533+P40337 [L858R,T790M]; test: Protac activity at VHL/EGFR L858R/T790M mutant in human NCI-H1975 cells assessed as induction of EGFR degradation at 10 to 100 nM measured after 12 hrs in presence of proteasome inhibitor MG132 by Western blot analysis; assay type: cell-based; settings: dose 10-100 nM
[26] = test system: von Hippel-Lindau disease tumor suppressor/Epidermal growth factor receptor (Homo sapiens), P00533+P40337 [L858R,T790M]; test: Protac activity at VHL/EGFR L858R/T790M mutant in human NCI-H1975 cells assessed as induction of EGFR degradation at 200 nM measured after 6 hrs by Western blot analysis relative to control; assay type: cell-based
[27] = test system: von Hippel-Lindau disease tumor suppressor/Epidermal growth factor receptor (Homo sapiens), P00533+P40337 [L858R,T790M]; test: Protac activity at VHL/EGFR L858R/T790M mutant in human NCI-H1975 cells assessed as induction of EGFR degradation at 200 nM measured after 24 hrs by Western blot analysis; assay type: cell-based
[28] = target: Protein cereblon/Epidermal growth factor receptor (Homo sapiens, UniProt P00533+Q96SW2); test: Protac activity at CRBN/EGFR in human A431 cells assessed as EGFR degradation by Western blot analysis; assay type: cell-based; settings: a-431

## C=CC(=O)Nc1cccc(-n2c(=O)cc(C)c3cnc(Nc4ccc(N5CCN(CCCCCCCCCC(=O)N[C@H](C(=O)N6C[C@H](O)C[C@H]6C(=O)NCc6ccc(-c7scnc7C)cc6)C(C)(C)C)CC5)cc4OC)nc32)c1
[1]
  DC50: > 2000 nM
[2]
  DC50: 132 nM

## C=CC(=O)Nc1cccc(-n2c(=O)cc(C)c3cnc(Nc4ccc(N5CCN(C(=O)CCCCCCCCC(=O)N[C@H](C(=O)N6C[C@H](O)C[C@H]6C(=O)NCc6ccc(-c7scnc7C)cc6)C(C)(C)C)CC5)cc4OC)nc32)c1
[1]
  DC50: > 2000 nM
[2]
  DC50: 69 nM

## C=CC(=O)Nc1cccc(-n2c(=O)cc(C)c3cnc(Nc4ccc(N5CCN(C(=O)CCCCCCCNC(=O)c6ccc(NC(=O)[C@@H]7N[C@@H](CC(C)(C)C)[C@](C#N)(c8ccc(Cl)cc8F)[C@H]7c7cccc(Cl)c7F)c(OC)c6)CC5)cc4OC)nc32)c1
[3]
  DC50: 253 nM
[4]
  DC50: > 2000 nM

## C=CC(=O)Nc1cccc(-n2c(=O)cc(C)c3cnc(Nc4ccc(N5CCN(CCCCCC(=O)N[C@H](C(=O)N6C[C@H](O)C[C@H]6C(=O)NCc6ccc(-c7scnc7C)cc6)C(C)(C)C)CC5)cc4OC)nc32)c1
[5]
  Activity: inactive
[6]
  Activity: inactive
[7]
  Activity: Dose-dependent effect
[1]
  DC50: > 2000 nM
[8]
  pIC50: 6.30
[9]
  Activity: inactive
[10]
  Activity: Dose-dependent effect
[11]
  Activity: Non-Toxic
[12]
  Activity: Dose-dependent effect
[13]
  Activity: Dose-dependent effect
[14]
  Activity: inactive
[15]
  Activity: 89%
[16]
  Activity: inactive
[17]
  Activity: inactive
[2]
  DC50: 5.9 nM
[18]
  pIC50: < 6.00
[19]
  Activity: inactive
[20]
  pIC50: 7.71
[21]
  Activity: Non-Toxic
[22]
  Activity: Active
[23]
  Activity: Active
[24]
  Activity: inactive
[25]
  Activity: inactive
[26]
  Activity: 63%
[27]
  Activity: inactive

## C=CC(=O)Nc1cccc(-n2c(=O)cc(C)c3cnc(Nc4ccc(N5CCN(C(=O)CCCCCCC(=O)N[C@H](C(=O)N6C[C@H](O)C[C@H]6C(=O)NCc6ccc(-c7scnc7C)cc6)C(C)(C)C)CC5)cc4OC)nc32)c1
[1]
  DC50: > 2000 nM
[2]
  DC50: 235 nM

## C=CC(=O)Nc1cccc(-n2c(=O)cc(C)c3cnc(Nc4ccc(N5CCN(C(=O)CCCCCCCCCCC(=O)Nc6cccc7c6C(=O)N(C6CCC(=O)NC6=O)C7=O)CC5)cc4OC)nc32)c1 (stereo not drawn)
[28]
  DC50: > 2000 nM

## C=CC(=O)Nc1cccc(-n2c(=O)cc(C)c3cnc(Nc4ccc(N5CCN(CCCCCCCCCCCC(=O)N[C@H](C(=O)N6C[C@H](O)C[C@H]6C(=O)NCc6ccc(-c7scnc7C)cc6)C(C)(C)C)CC5)cc4OC)nc32)c1
[1]
  DC50: 50.3 nM
[2]
  DC50: > 2000 nM

## C=CC(=O)Nc1cccc(-n2c(=O)cc(C)c3cnc(Nc4ccc(N5CCN(C(=O)CCCCCCCCCNC(=O)c6ccc(NC(=O)[C@@H]7N[C@@H](CC(C)(C)C)[C@](C#N)(c8ccc(Cl)cc8F)[C@H]7c7cccc(Cl)c7F)c(OC)c6)CC5)cc4OC)nc32)c1
[3]
  DC50: 313 nM
[4]
  DC50: > 2000 nM
